Results from the kinase profiling compilation of Christmann-Franck et al. (2016).
One block for each compound: values may come before it.

Tests used:
Experiment in all cases: radiometric filter-binding kinase assay
AKT2 (human) = AKT2 (human) (UniProt P31751); conditions: ATP 50 µM
GSK3B (human) = GSK3B (human) (UniProt P49841); conditions: ATP 5 µM
MAPK9 (human) = MAPK9 (human) (UniProt P45984); conditions: ATP 20 µM
MAPK11 (human) = MAPK11 (human) (UniProt Q15759); conditions: ATP 20 µM
NEK2 (human) = NEK2 (human) (UniProt P51955); conditions: ATP 50 µM
MAPK10 (human) = MAPK10 (human) (UniProt P53779); conditions: ATP 50 µM
MAPK15 (human) = MAPK15 (human) (UniProt Q8TD08); conditions: ATP 5 µM
[1] = target: CSNK2A1 or CSNK2A2 (human) (UniProt P19784+P68400); conditions: ATP 5 µM
PLK1 (human) = PLK1 (human) (UniProt P53350); conditions: ATP 5 µM
Chain of PLK1 (human) (P53350 whole entry, looked up): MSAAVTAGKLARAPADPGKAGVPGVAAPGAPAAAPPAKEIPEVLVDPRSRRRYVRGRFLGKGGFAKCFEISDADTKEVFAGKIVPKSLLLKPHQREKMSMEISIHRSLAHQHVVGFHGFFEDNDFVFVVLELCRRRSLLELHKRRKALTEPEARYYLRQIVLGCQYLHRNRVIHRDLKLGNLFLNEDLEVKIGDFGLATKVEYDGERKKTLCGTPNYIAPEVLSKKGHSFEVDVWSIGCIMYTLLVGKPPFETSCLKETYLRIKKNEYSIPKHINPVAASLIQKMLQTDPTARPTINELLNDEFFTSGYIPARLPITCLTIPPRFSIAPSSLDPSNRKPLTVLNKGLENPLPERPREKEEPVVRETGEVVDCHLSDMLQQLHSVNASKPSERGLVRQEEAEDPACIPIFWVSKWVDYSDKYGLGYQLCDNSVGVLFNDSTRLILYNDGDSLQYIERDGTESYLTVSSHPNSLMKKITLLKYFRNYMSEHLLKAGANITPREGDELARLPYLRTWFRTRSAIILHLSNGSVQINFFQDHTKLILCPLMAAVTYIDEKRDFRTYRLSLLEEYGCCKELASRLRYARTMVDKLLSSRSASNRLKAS

PIM3 (human) = PIM3 (human) (UniProt Q86V86); conditions: ATP 20 µM
[2] = tested on: RPS6KB1 (human), P23443 [T412E]; conditions: ATP 20 µM
LCK (mouse) = conditions: ATP 50 µM, accession and sequence are those of the human protein
CAMKK1 (human) = CAMKK1 (human) (UniProt Q8N5S9); conditions: ATP 20 µM
HIPK3 (human) = HIPK3 (human) (UniProt Q9H422); conditions: ATP 20 µM
Chain of HIPK3 (human) (Q9H422 whole entry, looked up): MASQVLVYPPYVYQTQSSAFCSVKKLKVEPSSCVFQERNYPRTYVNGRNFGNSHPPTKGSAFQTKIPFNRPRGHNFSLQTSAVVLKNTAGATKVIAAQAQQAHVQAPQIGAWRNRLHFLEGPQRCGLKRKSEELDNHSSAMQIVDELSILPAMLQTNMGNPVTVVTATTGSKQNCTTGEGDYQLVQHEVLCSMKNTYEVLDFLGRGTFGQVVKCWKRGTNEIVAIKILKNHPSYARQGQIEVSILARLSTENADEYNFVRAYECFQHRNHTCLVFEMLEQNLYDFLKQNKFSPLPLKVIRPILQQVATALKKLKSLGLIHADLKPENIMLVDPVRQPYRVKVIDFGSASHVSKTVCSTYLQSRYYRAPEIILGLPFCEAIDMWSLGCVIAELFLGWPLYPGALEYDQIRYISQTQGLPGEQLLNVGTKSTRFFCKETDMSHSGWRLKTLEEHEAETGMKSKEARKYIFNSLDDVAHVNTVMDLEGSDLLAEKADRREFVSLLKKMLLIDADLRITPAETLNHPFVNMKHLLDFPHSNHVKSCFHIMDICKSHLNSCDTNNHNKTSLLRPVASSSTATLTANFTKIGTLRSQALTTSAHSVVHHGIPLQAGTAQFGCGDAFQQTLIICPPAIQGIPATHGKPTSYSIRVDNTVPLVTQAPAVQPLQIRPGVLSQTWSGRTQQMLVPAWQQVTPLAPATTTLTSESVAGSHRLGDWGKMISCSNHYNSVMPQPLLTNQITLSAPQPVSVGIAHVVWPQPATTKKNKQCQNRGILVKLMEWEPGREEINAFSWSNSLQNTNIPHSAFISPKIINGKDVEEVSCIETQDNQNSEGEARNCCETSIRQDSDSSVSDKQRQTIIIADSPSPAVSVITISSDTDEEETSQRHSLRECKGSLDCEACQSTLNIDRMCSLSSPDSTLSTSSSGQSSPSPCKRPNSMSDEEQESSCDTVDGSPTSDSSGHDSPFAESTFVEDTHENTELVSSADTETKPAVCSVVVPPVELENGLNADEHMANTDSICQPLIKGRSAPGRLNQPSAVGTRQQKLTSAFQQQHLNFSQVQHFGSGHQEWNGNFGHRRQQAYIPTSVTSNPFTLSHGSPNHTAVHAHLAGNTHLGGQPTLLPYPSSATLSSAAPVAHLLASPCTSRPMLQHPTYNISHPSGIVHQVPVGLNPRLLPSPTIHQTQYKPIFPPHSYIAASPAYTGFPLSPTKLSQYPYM

CSK (human) = CSK (human) (UniProt P41240); conditions: ATP 20 µM
BRSK2 (human) = BRSK2 (human) (UniProt Q8IWQ3); conditions: ATP 50 µM
MAPKAPK5 (human) = MAPKAPK5 (human) (UniProt Q8IW41); conditions: ATP 20 µM
Chain of MAPKAPK5 (human) (Q8IW41 whole entry, looked up): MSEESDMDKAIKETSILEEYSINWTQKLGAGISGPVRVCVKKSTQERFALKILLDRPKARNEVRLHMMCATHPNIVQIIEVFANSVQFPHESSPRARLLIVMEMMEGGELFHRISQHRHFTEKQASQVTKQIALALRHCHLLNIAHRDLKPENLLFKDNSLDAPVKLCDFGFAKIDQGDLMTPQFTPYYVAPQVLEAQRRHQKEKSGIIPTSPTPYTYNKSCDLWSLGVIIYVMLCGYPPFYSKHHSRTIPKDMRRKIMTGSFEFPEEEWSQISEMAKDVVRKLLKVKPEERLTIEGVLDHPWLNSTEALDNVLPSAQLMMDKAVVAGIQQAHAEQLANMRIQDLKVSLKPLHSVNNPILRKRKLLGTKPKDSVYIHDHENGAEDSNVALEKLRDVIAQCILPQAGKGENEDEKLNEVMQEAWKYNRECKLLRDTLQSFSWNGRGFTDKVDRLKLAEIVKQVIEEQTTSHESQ

PDPK1 (human) = PDPK1 (human) (UniProt O15530)
HIPK2 (human) = HIPK2 (human) (UniProt Q9H2X6); conditions: ATP 5 µM
CSNK1D (human) = CSNK1D (human) (UniProt P48730); conditions: ATP 20 µM
RPS6KA5 KD1 KD2 (human) = RPS6KA5 KD1 KD2 (human) (UniProt O75582); conditions: ATP 20 µM
MAPK1 (human) = MAPK1 (human) (UniProt P28482); conditions: ATP 50 µM
MAPK14 (human) = MAPK14 (human) (UniProt Q16539); conditions: ATP 50 µM
Chain of MAPK14 (human) (Q16539 whole entry, looked up): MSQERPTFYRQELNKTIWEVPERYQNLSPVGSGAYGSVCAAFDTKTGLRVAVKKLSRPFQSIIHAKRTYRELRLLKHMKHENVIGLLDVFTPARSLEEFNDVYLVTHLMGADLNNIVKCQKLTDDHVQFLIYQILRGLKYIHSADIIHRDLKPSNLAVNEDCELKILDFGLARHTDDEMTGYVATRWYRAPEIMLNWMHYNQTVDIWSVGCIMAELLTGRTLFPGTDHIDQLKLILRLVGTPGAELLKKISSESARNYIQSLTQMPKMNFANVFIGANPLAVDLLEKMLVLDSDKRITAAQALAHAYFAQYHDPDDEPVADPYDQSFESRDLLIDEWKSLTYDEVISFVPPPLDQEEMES

[3] = target: PRKACA or PRKACB or PRKACG (human) (UniProt P22694+P22612+P17612); conditions: ATP 20 µM
CHEK1 (human) = CHEK1 (human) (UniProt O14757); conditions: ATP 20 µM
MAPK12 (human) = MAPK12 (human) (UniProt P53778); conditions: ATP 5 µM
MAP2K1 (human) = MAP2K1 (human) (UniProt Q02750); conditions: ATP 5 µM
MAPKAPK2 (human) = MAPKAPK2 (human) (UniProt P49137); conditions: ATP 20 µM
PKN2 (human) = PKN2 (human) (UniProt Q16513); conditions: ATP 5 µM
PAK6 (human) = PAK6 (human) (UniProt Q9NQU5); conditions: ATP 20 µM
AURKC (human) = AURKC (human) (UniProt Q9UQB9); conditions: ATP 5 µM
PAK4 (human) = PAK4 (human) (UniProt O96013); conditions: ATP 5 µM
Chain of PAK4 (human) (O96013 whole entry, looked up): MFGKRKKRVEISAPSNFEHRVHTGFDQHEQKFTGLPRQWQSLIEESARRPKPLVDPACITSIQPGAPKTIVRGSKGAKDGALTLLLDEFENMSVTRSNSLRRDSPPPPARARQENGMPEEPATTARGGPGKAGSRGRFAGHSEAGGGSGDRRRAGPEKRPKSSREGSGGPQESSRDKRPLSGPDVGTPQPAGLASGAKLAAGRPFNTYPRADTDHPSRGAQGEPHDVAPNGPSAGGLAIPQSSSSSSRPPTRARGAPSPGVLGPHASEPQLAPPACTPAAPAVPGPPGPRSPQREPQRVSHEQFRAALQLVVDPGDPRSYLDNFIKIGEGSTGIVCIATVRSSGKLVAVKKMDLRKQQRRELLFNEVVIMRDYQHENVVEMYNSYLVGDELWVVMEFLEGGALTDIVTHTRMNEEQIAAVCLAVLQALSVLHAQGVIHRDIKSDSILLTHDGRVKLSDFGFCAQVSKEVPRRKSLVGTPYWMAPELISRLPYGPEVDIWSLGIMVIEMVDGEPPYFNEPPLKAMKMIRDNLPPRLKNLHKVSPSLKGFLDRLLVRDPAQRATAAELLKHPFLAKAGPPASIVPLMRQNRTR

MAPK13 (human) = MAPK13 (human) (UniProt O15264); conditions: ATP 5 µM
NEK7 (human) = NEK7 (human) (UniProt Q8TDX7); conditions: ATP 20 µM
MKNK1 (human) = MKNK1 (human) (UniProt Q9BUB5); conditions: ATP 50 µM
Chain of MKNK1 (human) (Q9BUB5 whole entry, looked up): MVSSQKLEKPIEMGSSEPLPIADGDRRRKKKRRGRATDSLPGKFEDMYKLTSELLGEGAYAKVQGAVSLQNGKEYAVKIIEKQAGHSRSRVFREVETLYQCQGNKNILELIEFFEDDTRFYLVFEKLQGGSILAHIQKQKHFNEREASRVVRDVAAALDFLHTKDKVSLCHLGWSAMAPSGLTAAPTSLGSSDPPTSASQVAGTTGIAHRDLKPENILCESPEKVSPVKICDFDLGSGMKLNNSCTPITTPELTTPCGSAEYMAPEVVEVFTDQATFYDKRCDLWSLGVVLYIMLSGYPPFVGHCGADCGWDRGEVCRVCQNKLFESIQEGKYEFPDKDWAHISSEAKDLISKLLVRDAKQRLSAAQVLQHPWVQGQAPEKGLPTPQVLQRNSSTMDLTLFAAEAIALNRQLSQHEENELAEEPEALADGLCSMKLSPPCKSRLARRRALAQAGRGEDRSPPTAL

SRPK1 (human) = SRPK1 (human) (UniProt Q96SB4); conditions: ATP 50 µM
AURKB (human) = AURKB (human) (UniProt Q96GD4); conditions: ATP 20 µM
CDK2 CCNA2 (human) = CDK2 CCNA2 (human) (UniProt P24941+P20248); conditions: ATP 20 µM
MKNK2 (human) = MKNK2 (human) (UniProt Q9HBH9); conditions: ATP 50 µM
Chain of MKNK2 (human) (Q9HBH9 whole entry, looked up): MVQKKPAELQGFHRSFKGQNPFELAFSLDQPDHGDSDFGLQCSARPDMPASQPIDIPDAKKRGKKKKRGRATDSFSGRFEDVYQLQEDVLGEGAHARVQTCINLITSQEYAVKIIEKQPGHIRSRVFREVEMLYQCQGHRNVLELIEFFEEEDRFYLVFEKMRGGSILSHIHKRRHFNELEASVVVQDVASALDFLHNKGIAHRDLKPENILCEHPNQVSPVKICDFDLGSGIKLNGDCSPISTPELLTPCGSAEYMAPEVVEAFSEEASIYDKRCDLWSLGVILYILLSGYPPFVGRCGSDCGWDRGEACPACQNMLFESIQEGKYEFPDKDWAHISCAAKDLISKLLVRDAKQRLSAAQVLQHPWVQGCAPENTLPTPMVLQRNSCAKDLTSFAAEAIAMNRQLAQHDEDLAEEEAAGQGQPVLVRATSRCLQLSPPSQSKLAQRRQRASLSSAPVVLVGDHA

Chain of GSK3B (human) (P49841 whole entry, looked up): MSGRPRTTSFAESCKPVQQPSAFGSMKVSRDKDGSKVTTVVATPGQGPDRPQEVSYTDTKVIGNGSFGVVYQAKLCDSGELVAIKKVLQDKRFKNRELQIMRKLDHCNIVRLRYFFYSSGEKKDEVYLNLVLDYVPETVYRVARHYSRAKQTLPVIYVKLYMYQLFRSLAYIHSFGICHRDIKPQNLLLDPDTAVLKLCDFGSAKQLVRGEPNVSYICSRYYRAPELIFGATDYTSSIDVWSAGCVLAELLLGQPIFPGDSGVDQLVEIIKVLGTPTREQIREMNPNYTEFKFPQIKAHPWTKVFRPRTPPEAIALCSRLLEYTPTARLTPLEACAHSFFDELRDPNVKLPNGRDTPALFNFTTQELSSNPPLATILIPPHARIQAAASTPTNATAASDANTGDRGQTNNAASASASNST

- residual activity (AKT2 (human); compound 1.0 µM): 92%
- residual activity (GSK3B (human); compound 1.0 µM): 81%
- residual activity (MAPK9 (human); compound 1.0 µM): 24%
- residual activity (MAPK11 (human); compound 1.0 µM): 106%
- residual activity (NEK2 (human); compound 1.0 µM): 78%
- residual activity (MAPK10 (human); compound 1.0 µM): 47%
- residual activity ([1]; compound 1.0 µM): 57%
- residual activity (PLK1 (human); compound 1.0 µM): 80%
- residual activity (PIM3 (human); compound 1.0 µM): 17%
- residual activity ([2]; compound 1.0 µM): 85%
- residual activity (LCK (mouse); compound 1.0 µM): 68%
- residual activity (CAMKK1 (human); compound 1.0 µM): 68%
- residual activity (HIPK3 (human); compound 1.0 µM): 56%
- residual activity (CSK (human); compound 1.0 µM): 65%
- residual activity (BRSK2 (human); compound 1.0 µM): 44%
- residual activity (MAPKAPK5 (human); compound 1.0 µM): 58%
- residual activity (PDPK1 (human); compound 1.0 µM, ATP 20 µM): 56%
- residual activity (PDPK1 (human); compound 1.0 µM, ATP 50 µM): 26%
- residual activity (HIPK2 (human); compound 1.0 µM): 35%
- residual activity (CSNK1D (human); compound 1.0 µM): 15%
- residual activity (RPS6KA5 KD1 KD2 (human); compound 1.0 µM): 72%
- residual activity (MAPK1 (human); compound 1.0 µM): 86%
- residual activity (MAPK14 (human); compound 1.0 µM): 110%
- residual activity ([3]; compound 1.0 µM): 80%
- residual activity (CHEK1 (human); compound 1.0 µM): 63%
- residual activity (MAPK12 (human); compound 1.0 µM): 86%
- residual activity (MAP2K1 (human); compound 1.0 µM): 58%
- residual activity (MAPKAPK2 (human); compound 1.0 µM): 102%
- residual activity (PKN2 (human); compound 1.0 µM): 70%
- residual activity (PAK6 (human); compound 1.0 µM): 72%
- residual activity (AURKC (human); compound 1.0 µM): 20%
- residual activity (PAK4 (human); compound 1.0 µM): 60%
- residual activity (MAPK13 (human); compound 1.0 µM): 82%
- residual activity (NEK7 (human); compound 1.0 µM): 112%
- residual activity (MKNK1 (human); compound 1.0 µM): 67%
- residual activity (SRPK1 (human); compound 1.0 µM): 84%
- residual activity (AURKB (human); compound 1.0 µM): 15%
- residual activity (CDK2 CCNA2 (human); compound 1.0 µM): 50%
- residual activity (MKNK2 (human); compound 1.0 µM): 59%
SMILES: O=C1c2ccccc2-c2n[nH]c3cccc1c23
- residual activity (MAPK15 (human); compound 1.0 µM): 43%

- residual activity (AKT2 (human); compound 0.01 µM): 77%
- residual activity (GSK3B (human); compound 0.01 µM): 77%
- residual activity (MAPK9 (human); compound 0.01 µM): 92%
- residual activity (MAPK11 (human); compound 0.01 µM): 105%
- residual activity (NEK2 (human); compound 0.01 µM): 85%
- residual activity (MAPK10 (human); compound 0.01 µM): 107%
- residual activity ([1]; compound 0.01 µM): 92%
- residual activity (PLK1 (human); compound 0.01 µM): 76%
- residual activity (PIM3 (human); compound 0.01 µM): 8%
- residual activity ([2]; compound 0.01 µM): 96%
- residual activity (LCK (mouse); compound 0.01 µM): 50%
- residual activity (CAMKK1 (human); compound 0.01 µM): 58%
- residual activity (HIPK3 (human); compound 0.01 µM): 116%
- residual activity (CSK (human); compound 0.01 µM): 80%
- residual activity (BRSK2 (human); compound 0.01 µM): 27%
- residual activity (MAPKAPK5 (human); compound 0.01 µM): 83%
- residual activity (PDPK1 (human); compound 0.01 µM, ATP 20 µM): 2%
- residual activity (PDPK1 (human); compound 0.01 µM, ATP 50 µM): 83%
- residual activity (HIPK2 (human); compound 0.01 µM): 109%
- residual activity (CSNK1D (human); compound 0.01 µM): 96%
- residual activity (RPS6KA5 KD1 KD2 (human); compound 0.01 µM): 68%
- residual activity (MAPK14 (human); compound 0.01 µM): 105%
- residual activity ([3]; compound 0.01 µM): 63%
- residual activity (CHEK1 (human); compound 0.01 µM): 12%
- residual activity (MAPK12 (human); compound 0.01 µM): 104%
- residual activity (MAP2K1 (human); compound 0.01 µM): 75%
- residual activity (MAPKAPK2 (human); compound 0.01 µM): 75%
- residual activity (PKN2 (human); compound 0.01 µM): 10%
- residual activity (PAK6 (human); compound 0.01 µM): 35%
- residual activity (AURKC (human); compound 0.01 µM): 71%
- residual activity (PAK4 (human); compound 0.01 µM): 33%
- residual activity (MAPK13 (human); compound 0.01 µM): 94%
- residual activity (NEK7 (human); compound 0.01 µM): 99%
- residual activity (MKNK1 (human); compound 0.01 µM): 85%
- residual activity (AURKB (human); compound 0.01 µM): 59%
- residual activity (MKNK2 (human); compound 0.01 µM): 103%
SMILES: CN[C@@H]1C[C@@H]2O[C@@](C)([C@@H]1OC)n1c3ccccc3c3c4c(c5c6ccccc6n2c5c31)C(=O)N[C@@H]4O
- residual activity (MAPK15 (human); compound 0.01 µM): 92%

- residual activity (AKT2 (human); compound 10.0 µM): 98%
- residual activity (GSK3B (human); compound 10.0 µM): 82%
- residual activity (MAPK9 (human); compound 10.0 µM): 73%
- residual activity (MAPK11 (human); compound 10.0 µM): 91%
- residual activity (NEK2 (human); compound 10.0 µM): 89%
- residual activity (MAPK10 (human); compound 10.0 µM): 98%
- residual activity ([1]; compound 10.0 µM): 99%
- residual activity (PLK1 (human); compound 10.0 µM): 92%
- residual activity (PIM3 (human); compound 10.0 µM): 63%
- residual activity ([2]; compound 10.0 µM): 93%
- residual activity (LCK (mouse); compound 10.0 µM): 84%
- residual activity (HIPK3 (human); compound 10.0 µM): 87%
- residual activity (MAPKAPK5 (human); compound 10.0 µM): 92%
- residual activity (PDPK1 (human); compound 10.0 µM, ATP 20 µM): 77%
- residual activity (PDPK1 (human); compound 10.0 µM, ATP 50 µM): 77%
- residual activity (HIPK2 (human); compound 10.0 µM): 97%
- residual activity (RPS6KA5 KD1 KD2 (human); compound 10.0 µM): 85%
- residual activity (MAPK1 (human); compound 10.0 µM): 68%
- residual activity (MAPK14 (human); compound 10.0 µM): 77%
- residual activity ([3]; compound 10.0 µM): 93%
- residual activity (CHEK1 (human); compound 10.0 µM): 83%
- residual activity (MAPK12 (human); compound 10.0 µM): 90%
- residual activity (MAPKAPK2 (human); compound 10.0 µM): 95%
- residual activity (PKN2 (human); compound 10.0 µM): 85%
- residual activity (PAK4 (human); compound 10.0 µM): 94%
- residual activity (MAPK13 (human); compound 10.0 µM): 93%
- residual activity (NEK7 (human); compound 10.0 µM): 97%
- residual activity (MKNK1 (human); compound 10.0 µM): 78%
- residual activity (SRPK1 (human); compound 10.0 µM): 102%
- residual activity (AURKB (human); compound 10.0 µM): 86%
- residual activity (CDK2 CCNA2 (human); compound 10.0 µM): 86%
- residual activity (MKNK2 (human); compound 10.0 µM): 85%
SMILES: N#CC(=C(\N)Sc1ccccc1N)/C(C#N)=C(/N)Sc1ccccc1N
- residual activity (MAPK15 (human); compound 10.0 µM): 67%
